The subject of this experiment is PDECs. The experiment can be described thus: Cytokine profiling (ELISA) of PDEC growth media. Type of experiment: cell-based, human. On the procedure: Media (1 ml) collected from NFC-grown PDECs or PBMCs at day 3 and day 7 timepoints was stored at −80° C. until the day of analysis. […] Cell and matrix debris were removed after thawing by centrifugation (10 min, 10 000 G, RT). Cytokines secreted to growth media were analyzed with R&D DuoSetELISA kits (IL2: DY202-05, IL-10: DY217B-05, TNF-α: DY210-05, IFN-γ: DY285B-05, IL-4: DY204-05, IL-6: DY206-05, IL-1β/IL1F2: DY201-05, LAP (TGF-β1): DY246-05) together with DuoSet Ancillary Reagent Kit 2 (DY008), according to manufacturer's protocol. Briefly, plates were coated with capture antibody overnight at RT, washed 3 times and blocked with 1% BSA in PBS for 1 hour. Samples diluted in growth media were added and incubated for 2 hours at RT. After 3 washes, detection antibody was added and incubated for 2 hours at RT. After washes, Streptavidin-HRP was added and incubated for 20 min at RT, protected from light. After washes, Substrate solution was added for 20 min, protected from light, after which the reaction was stopped with stop solution and absorbance was immediately determined using a microplate reader set to 450 nm, and 540 nm to subtract background (Omega Fluostar, BMG Labtech).
On the technique in general: An ELISA detects its analyte on a solid surface through an enzyme-linked reagent.

In the case of `O=C(O)CCCC[C@@H]1SC[C@@H]2NC(=O)N[C@@H]21` [biotin], for the setting “1 μM biotin added to PDEC growth media, NFC cultures”, the “amount of inflammatory cytokine IFN-γ” value is on record as “clearly decreased”. Further, the “inflammatory cytokine secretion into the media” value (biotin added to growth media after functionalization of the matrix) is given as “clearly decreased”.

(Values after US20230258624A1, “Ex vivo tumour immune microenvironment model, a method for preserving a tumour-specific immune cell profile in an ex vivo tumour immune microenvironment model and use of nanofibrillar cellulose” (UPM-Kymmene Corporation, priority 2022, published 2023).)
